According to patent US4782159A, “Process for preparing beta-methyl-gamma-oxo-4-(4-oxo-1(4H)-pyridinyl) derivative of benzene butanoic acid” (Smith Kline & French Laboratories Limited, priority 1986, dated 1988):
“Also recorded” adds a separate entry of the source. Blank lines part the entries; values can stand above or below the compound they belong to.

Legend:
PDE (Peak II) [1] = target: T1, PDE (Peak II) (Felis catus, UniProt A0ABI7ZLD2); test: Substrate kinetics of PDE (Peak II) from cat heart; assay type: biochemical
T1 construct: DEAE-Sepharose CL-6B Peak II of cat heart high-speed supernatant
T1 sequence (A0ABI7ZLD2 1-921): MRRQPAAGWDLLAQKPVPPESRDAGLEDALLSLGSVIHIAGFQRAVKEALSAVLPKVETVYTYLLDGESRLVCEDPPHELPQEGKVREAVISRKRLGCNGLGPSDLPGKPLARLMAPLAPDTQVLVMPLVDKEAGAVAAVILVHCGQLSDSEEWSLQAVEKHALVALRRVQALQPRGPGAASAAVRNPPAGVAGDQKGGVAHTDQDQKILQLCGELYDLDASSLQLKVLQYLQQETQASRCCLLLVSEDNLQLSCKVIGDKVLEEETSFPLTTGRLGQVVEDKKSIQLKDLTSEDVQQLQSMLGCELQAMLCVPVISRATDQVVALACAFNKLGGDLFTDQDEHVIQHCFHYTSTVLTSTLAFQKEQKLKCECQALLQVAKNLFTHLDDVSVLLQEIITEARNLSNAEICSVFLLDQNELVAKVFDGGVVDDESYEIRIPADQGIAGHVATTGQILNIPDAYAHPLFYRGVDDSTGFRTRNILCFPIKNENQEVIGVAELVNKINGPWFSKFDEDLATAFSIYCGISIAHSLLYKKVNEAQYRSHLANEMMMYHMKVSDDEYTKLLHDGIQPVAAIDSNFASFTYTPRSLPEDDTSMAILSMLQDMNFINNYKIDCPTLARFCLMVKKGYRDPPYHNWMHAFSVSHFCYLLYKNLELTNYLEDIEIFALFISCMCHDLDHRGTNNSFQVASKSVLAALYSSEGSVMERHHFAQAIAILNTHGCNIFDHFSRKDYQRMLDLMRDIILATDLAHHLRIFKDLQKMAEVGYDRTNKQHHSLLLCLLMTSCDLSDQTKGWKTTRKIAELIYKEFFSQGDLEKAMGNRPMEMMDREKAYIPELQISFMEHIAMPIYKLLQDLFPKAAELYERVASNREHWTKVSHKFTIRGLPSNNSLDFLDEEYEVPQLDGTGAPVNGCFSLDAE
Experimental: (§2) The enzyme was assayed by incubation at 37° for 4-30 min in 50 mM Tris, 5 mM MgCl2, pH 7.5 with [3-H] cyclic nucleotide (4×10^5 disintegrations min^-1) and [14-C] nucleotide 5' monophosphate (3×10^3 disintegrations min^-1). The assay was stopped by boiling, and the [3-H] […] The reaction mixture was diluted with 0.5 ml 100 mM HEPES (N-2-Hydroxyethylpiperazine-N'-2-ethanesulfonic acid), 100 mM NaCl, pH 8.5, and applied to the column. […] The recovery of product as judged by [14-C] recovery was approximately 80%. All assays were linear with time of incubation and concentration of enzyme over the range used in these experiments.

PDE (Peak III) [2] = target: T2, PDE (Peak III) (Felis catus, UniProt A0ABI7YEY2); test: Substrate kinetics of PDE (Peak III) from cat heart; assay type: biochemical; set-up: DEAE-Sepharose Peak III from high-speed supernatant of cat heart homogenate
T2 sequence (A0ABI7YEY2 1-1144): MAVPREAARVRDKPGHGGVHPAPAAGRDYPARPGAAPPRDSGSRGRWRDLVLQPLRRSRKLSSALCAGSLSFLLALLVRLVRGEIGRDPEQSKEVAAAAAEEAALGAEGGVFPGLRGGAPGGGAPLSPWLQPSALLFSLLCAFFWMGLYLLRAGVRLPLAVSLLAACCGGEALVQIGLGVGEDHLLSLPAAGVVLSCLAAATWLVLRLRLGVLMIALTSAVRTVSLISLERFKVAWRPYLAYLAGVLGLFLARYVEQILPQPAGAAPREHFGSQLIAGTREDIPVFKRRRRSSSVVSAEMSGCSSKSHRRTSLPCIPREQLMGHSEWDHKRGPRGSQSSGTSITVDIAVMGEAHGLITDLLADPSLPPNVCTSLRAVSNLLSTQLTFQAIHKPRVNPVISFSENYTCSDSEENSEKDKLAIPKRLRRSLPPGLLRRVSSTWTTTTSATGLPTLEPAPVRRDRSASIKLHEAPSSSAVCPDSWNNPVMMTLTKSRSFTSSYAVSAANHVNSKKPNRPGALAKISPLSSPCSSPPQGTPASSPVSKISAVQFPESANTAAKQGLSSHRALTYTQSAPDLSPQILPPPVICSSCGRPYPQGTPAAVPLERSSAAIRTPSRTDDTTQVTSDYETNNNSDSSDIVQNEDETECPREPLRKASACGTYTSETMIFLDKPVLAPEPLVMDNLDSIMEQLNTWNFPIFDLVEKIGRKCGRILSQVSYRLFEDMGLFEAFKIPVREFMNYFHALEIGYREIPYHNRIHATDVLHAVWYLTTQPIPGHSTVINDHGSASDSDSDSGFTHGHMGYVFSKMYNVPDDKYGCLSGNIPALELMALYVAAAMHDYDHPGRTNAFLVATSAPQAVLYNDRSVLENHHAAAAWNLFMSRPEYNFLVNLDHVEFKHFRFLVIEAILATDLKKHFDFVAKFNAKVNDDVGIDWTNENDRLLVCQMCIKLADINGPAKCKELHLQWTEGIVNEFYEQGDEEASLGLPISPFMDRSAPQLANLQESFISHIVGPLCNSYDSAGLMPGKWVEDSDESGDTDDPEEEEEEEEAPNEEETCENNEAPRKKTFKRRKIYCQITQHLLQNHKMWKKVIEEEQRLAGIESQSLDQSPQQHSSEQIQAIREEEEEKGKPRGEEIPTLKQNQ
Experimental: as §2

PDE (Peak I) [3] = test: Substrate kinetics of PDE (Peak I) from cat heart; assay type: biochemical; details: for Relative Vmax: PDE (Peak I)
PDE (Peak III) [4] = target: T2, PDE (Peak III); test: Inhibition of Phosphodiesterases, PDE (Peak III)
Experimental: as §2

[5] = system: left ventricular dp/dt max; test: Cardiac Stimulant Activity--In vivo (Conscious Dogs); set-up: species or system dog
Experimental: The compound of formula (2) increased left ventricular dp/dt max in conscious dogs after intravenous administration at doses below 0.02 mg/kg. Oral administration caused positive inotropic responses at doses of 0.05 mg/kg and below.

[6] = system: platelet aggregation induced by the endoperoxide mimetic U44069; test: Platelet Aggregation Inhibition--In vitro; assay type: cell-based; details: U44069 (10 μM), aspirin-treated (100 μM) human platelet rich plasma
Experimental: Platelet rich plasma (PRP) was prepared from whole human blood anti-coagulated with 1/10 volume acid citrate dextrose. The citrated blood was centrifuged at 700 g for 5 minutes and the PRP removed. The remaining red cells and plasma were centrifuged for a further 15 minutes at 900 g and the platelet poor plasma removed. This was then mixed with the PRP to give a final platelet count of 2-3×10^8 cells/ml.
PRP was divided into 0.5 ml aliquots which were preincubated for 2 minutes to 37° C. before being placed in the sample chamber of an HG aggregometer connected to a Teckman chart recorder.
Aspirin was added to a concentration of 100 μM.
Aggregation to the endoperoxide mimetic U44069 (9,11-epoxymethano-PGH2) was then examined in the absence and presence of a range of concentrations of the compound of formula (2).

[7] = system: left ventricular dp/dt max (index of left ventricular contractility); test: Cardiac Stimulant Activity--In vivo (Anaesthetised Cats); set-up: species or system cat; details: intravenous
Text: In anaesthetised cats pretreated with a ganglion blocker (mecamylamine or pempidine) and propranolol, the compound of formula (2) causes increases in left ventricular dp/dt max (this is an index of left ventricular contractility) when administered intravenously.

PDE (Peak I) [8] = test: Inhibition of Phosphodiesterases, PDE (Peak I); assay type: biochemical, cat; details: at up to 10^-4 M
Text: (§1) This specificity is an indication that the compound is likely to have a force/rate selectivity in its cardiac stimulant activity with a low potential for inducing arrythmias.

PDE (Peak II) [9] = target: T1, PDE (Peak II); test: Inhibition of Phosphodiesterases, PDE (Peak II); assay type: biochemical, cat
Text: as §1

[10] = system: histamine-induced bronchoconstriction; test: Bronchodilatation--In vivo (histamine-induced bronchoconstriction); set-up: species or system guinea-pig, Dunkin Hartley strain; details: i.v., one minute before histamine challenge
Experimental: Male guinea-pigs of the Dunkin Hartley strain (530 g±6 g) were anaesthetised with Sagatal (pentobarbital sodium) (90 mg/kg i.p.). Airway resistance was measured using a modification of the classical Konzett-Rossler technique (Versuchsanordnung zu Untersuchungen an der Bronchialmuskulatur. Naunyn-Schmiedebergs Arch. Exp. Path. Pharmak., 195: pp 71-74, (1940)). A dose of histamine which gave approximately 150% increase in airway resistance was selected for i.v. administration. Bolus doses of the compound of formula (2) was administered (i.v.) one minute before the histamine challenge.

Relative Vmax (PDE (Peak II) [1]; PDE (Peak II)): 0.2 | affinity of PDE (Peak II) for substrate (PDE (Peak II) [1]; in words): relatively low affinities | Relative Vmax (PDE (Peak III) [2]): 0.4
Compound: Nc1nc2c(ncn2[C@@H]2O[C@@H]3COP(=O)(O)O[C@H]3[C@H]2O)c(=O)[nH]1 [cyclic GMP]
Relative Vmax (PDE (Peak I) [3]; 50 μg/ml calmodulin added): 7.2 | Relative Vmax (PDE (Peak I) [3]; without calmodulin): 1.1 | affinity of PDE (Peak I) for substrate (PDE (Peak I) [3]; in words): high affinity

Compound: Nc1cc(-c2ccncc2)c[nH]c1=O [Amrinone, reference compound]
IC50 (PDE (Peak III) [4]; PDE (Peak III), 1 μM cyclic AMP): 51.8 µM | activity in comparison with the compound of formula (2) [5]: less active | duration in comparison with the compound of formula (2) [5]: shorter duration

IC50 [6]: 0.08 ± 0.01 µM | inhibition of PDE (Peak II) (PDE (Peak II) [9]): either no or weak inhibition
Compound: CC1CC(=O)NN=C1c1ccc(-n2ccc(=O)cc2)cc1 (centres unmarked) [formula (2)]
selectivity for PDE (Peak III) / phosphodiesterase type III (PDE (Peak III) [4]; versus PDE (Peak I) and PDE (Peak II)): selective phosphodiesterase type III inhibitor; also recorded: selective PDE (Peak III) inhibitor | ED50 ([7]; Felis catus, read-out: ED50 (dose to increase left ventricular dp/dt max by 50%), anaesthetised cats pretreated with ganglion blocker and propranolol): 0.04 µmol/kg | changes in blood pressure or heart rate ([7]; anaesthetised cats): Minimal changes | changes in blood pressure or heart rate [5]: without changes | force-rate selectivity [5]: particularly beneficial | inhibition of PDE (Peak I) (PDE (Peak I) [8]): no inhibition | ED50 ([10]; Cavia porcellus, iv, read-out: ED50 (dose which reduced the histamine bronchoconstriction by 50%)): 1.8 µmol/kg | minimal effective dose ([10]; Cavia porcellus, read-out: threshold dose): 0.01 µmol/kg | effect on histamine-induced bronchoconstriction [10]: reduced the histamine-induced bronchoconstriction
